Assays:
Assay type in all cases: cell-based, mouse
RAW267.4 cells [1] = test: Cell proliferation of RAW267.4 cells (attached cell count after 3 days culture); details: single agent 0.1, 1.0, 10 and 100 μM, control 0.1% ethanol vehicle, FIGS. 1A and B
Experimental: RAW267.4 cells were cultured for 3 days in Dulbecco's modification of Eagle's medium containing vehicle (0.1% ethanol), (A) alendronate, (B) genistein or (C) alendronate plus genistein. After culture, the number of attached cells on the dish was counted. Data are presented as the mean±standard deviation of two replicate wells per data set using different dishes and cell preparation. *P<0.001 vs. control group (grey bar) as determined by one-way analysis of variance and Tukey-Kramer post hoc test.
RAW267.4 cells (1×10^5/ml cells/well; 2 ml medium added per well in 24-well plates) were cultured in DMEM containing 10% FBS and 1% P/S for 3 days in a water-saturated atmosphere containing 5% CO2 and 95% air at 37° C. (23). The cells were cultured in the presence or absence of vehicle (ethanol; final concentration 0.1%), alendronate (0.1, 1, 10 or 100 μM), genistein (0.1, 1, 10 or 100 μM), or alendronate (0.1, 1, 10 or 100 μM) plus genistein (0.1, 1, 10, or 100 After culture, cells were detached from each culture dish and counted. Following trypsinization of each of culture dish using 0.2% trpysin plus 0.02% EDTA in Ca^2+/Mg^2+-free PBS for 2 min at 37° C., cells detached from the dish were collected following centrifugation at 150×g (4° C.) for 5 min (23). Cells were resuspended in PBS solution and stained with eosin. […] For each dish, the average of two counts was calculated. […]

RAW267.4 cells [2] = test: Cell death of confluent RAW267.4 cells (cell count after additional 2 days culture); details: single agent 0.1, 1.0, 10 and 100 μM, FIGS. 2A and B
Experimental: RAW267.4 cells were cultured for 3 days in Dulbecco's modification of Eagle's medium, and then the cells were additionally cultured for 2 days in the presence or absence of (A) alendronate, (B) genistein or alendronate plus genistein. After culture, the number of attached cells on the dish was counted.
RAW267.4 cells (1×10^5/ml cells/well; 2 ml medium added per well in 24-well plates) were cultured in DMEM containing 10% FBS and 1% P/S for 3 days when confluence was reached (24). The cells were then cultured for an additional 2 days in the presence or absence of alendronate (0.1, 1, 10 or 100 μM), genistein (0.1, 1, 10 or 100 μM), or alendronate (0.1, 1, 10 or 100 μM) plus genistein (0.1, 1, 10 or 100 μM). After culture, cells were detached from each culture dish and counted as described for the cell proliferation assay.

RAW264.7 cells = test: Osteoclastogenesis assay, RANKL-induced, TRAP staining (TRAP-positive multinucleated cells); details: RANKL 30 ng/ml, 6 days; for effect on RANKL-induced osteoclastic differentiation (TRAP+ multinucleated cells): FIG. 3A; for effect on RANKL-stimulated osteoclastic differentiation (TRAP+ multinucleated cells): FIG. 3B
Experimental: Cells were cultured for 6 days with RANKL (30 ng/ml) pre-incubated for 10 min with crosslinking anti-poly-histidine antibody (2.5 μg/ml) in the presence or absence of vehicle (0.1% ethanol), (A) alendronate, (B) genistein or (C) alendronate plus genistein. After 6 days of culture, the cells were fixed and stained for TRAP.
RAW264.7 cells were cultured in 96-well plates in DMEM supplemented with 10% FBS and 1% P/S at a density of 1×10^4 cells/well. Cells were cultured for 6 days with RANKL (30 ng/ml) pre-incubated for 10 min with crosslinking anti-poly-histidine antibody (2.5 μg/ml; IC050P; R&D Systems, Inc., Minneapolis, Minn., USA) to induce osteoclast formation (21,22), in the presence or absence of vehicle (ethanol; final concentration 0.1%), alendronate (0.1, 1, 10 or 100 μM), genistein (0.1, 1, 10 or 100 μM), or alendronate (0.1, 1, 10 or 100 μM) plus genistein (0.1, 1, 10 or 100 μM). After 6 days of culture, the cells were fixed and stained for TRAP, a specific marker of the osteoclast phenotype, using a leukocyte acid phosphatase kit. […] TRAP-positive multinucleated cells (MNCs with at least three nuclei) were considered to be osteoclast-like cells, and the cells were counted using light microscopy (Olympus MTV-3). MNC scores are expressed as the mean±standard deviation of six cultures with two replicate wells per data set using different dishes and cell preparation.

## NCCCC(O)(P(=O)(O)O)P(=O)(O)O [alendronate]
RAW267.4 cells [1]
  effect on the proliferation of RAW267.4 cells (number of attached cells) vs control: did not have a significant effect
RAW267.4 cells [2]
  alteration in the number of RAW267.4 cells (cell death): did not cause a significant alteration
RAW264.7 cells; alendronate alone 100 μM
  effect on RANKL-induced osteoclastic differentiation (TRAP+ multinucleated cells): suppressed
RAW264.7 cells; alendronate alone 0.1, 1.0 and 10 μM
  effect on RANKL-induced osteoclastic differentiation (TRAP+ multinucleated cells): had no significant effect

## O=c1c(-c2ccc(O)cc2)coc2cc(O)cc(O)c12 [genistein, 4′,5,7-trihydroxyisoflavone]
RAW267.4 cells [1]
  effect on the proliferation of RAW267.4 cells (number of attached cells) vs control: did not have a significant effect
RAW267.4 cells [2]
  alteration in the number of RAW267.4 cells (cell death): did not cause a significant alteration
RAW264.7 cells; genistein alone 0.1 and 1.0 μM
  effect on RANKL-stimulated osteoclastic differentiation (TRAP+ multinucleated cells): did not reveal an effect
RAW264.7 cells; genistein alone 10 and 100 μM
  effect on RANKL-stimulated osteoclastic differentiation (TRAP+ multinucleated cells): suppressed

Source: patent publication US20190380999A1, “COMBINATIONS OF GENISTEIN AND BISPHOSPHONATES” (Primus Pharmaceuticals, Inc., priority 2018, published 2019)
